# Source: ChEMBL document CHEMBL1145629, “Design of (N)-methanocarba adenosine 5'-uronamides as species-independent A3 receptor-selective agonists” (Bioorg Med Chem Lett, 2008)
# Key:
# Adenosine receptor A2a [1] = target: T1, Adenosine receptor A2a (Homo sapiens, UniProt P29274); assay: Displacement of radioligand from human A2A adenosine receptor expressed in HEK293 cells at 10 uM; type: cell-based
# [2] = target: Adenosine receptor A2a (Mus musculus) (UniProt Q60613); assay: Displacement of [3H]2-[p-(2-carboxyethyl)phenyl-ethylamino]-5'-N-ethylcarbox-amidoadenosine from mouse recombinant adenosine A2A receptor expressed in HEK293 at 100 uM; type: cell-based
# Adenosine receptor A2a (Mus musculus), sequence (Q60613 whole entry): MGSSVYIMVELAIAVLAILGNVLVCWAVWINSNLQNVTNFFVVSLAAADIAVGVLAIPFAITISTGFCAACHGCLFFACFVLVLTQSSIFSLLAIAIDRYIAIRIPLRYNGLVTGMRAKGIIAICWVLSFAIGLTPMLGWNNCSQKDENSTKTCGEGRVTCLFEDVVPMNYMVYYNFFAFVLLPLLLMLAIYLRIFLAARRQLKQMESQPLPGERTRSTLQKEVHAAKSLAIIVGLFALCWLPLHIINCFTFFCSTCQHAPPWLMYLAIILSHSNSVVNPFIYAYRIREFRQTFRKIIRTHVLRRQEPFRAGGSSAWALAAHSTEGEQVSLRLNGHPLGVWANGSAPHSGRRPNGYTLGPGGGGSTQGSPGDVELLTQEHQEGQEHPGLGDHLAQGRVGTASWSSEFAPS
# Adenosine receptor A1 [3] = target: T2, Adenosine receptor A1 (Mus musculus, UniProt Q60612); assay: Displacement of [125I]N6-(4-amino-3-iodobenzyl)adenosine-5'-N-methyl-uronamide from mouse recombinant adenosine A1 receptor expressed in HEK293 cells; type: cell-based
# T2 sequence (Q60612 whole entry): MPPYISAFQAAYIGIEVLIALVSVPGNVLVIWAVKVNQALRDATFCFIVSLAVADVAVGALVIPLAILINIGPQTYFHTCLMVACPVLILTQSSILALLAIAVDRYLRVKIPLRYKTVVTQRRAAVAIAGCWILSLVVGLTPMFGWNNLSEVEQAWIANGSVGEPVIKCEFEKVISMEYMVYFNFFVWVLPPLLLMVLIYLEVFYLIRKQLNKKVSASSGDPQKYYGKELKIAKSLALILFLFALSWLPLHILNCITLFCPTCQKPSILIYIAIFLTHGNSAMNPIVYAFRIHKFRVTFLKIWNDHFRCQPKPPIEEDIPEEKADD
# Adenosine receptor A2a [4] = target: Adenosine receptor A2a (Mus musculus, UniProt Q60613); assay: Displacement of [3H]2-[p-(2-carboxyethyl)phenyl-ethylamino]-5'-N-ethylcarboxamidoadenosine from mouse recombinant adenosine A2A receptor expressed in HEK293 cells; type: cell-based
# Adenosine receptor A2a (Mus musculus, UniProt Q60613), sequence (Q60613 whole entry): as the sequence (Q60613 whole entry) above
# [5] = target: Adenosine receptors; A1 & A3 (Homo sapiens) (UniProt P30542+P0DMS8); assay: Selectivity for human adenosine A3 receptor over human adenosine A1 receptor
# Adenosine receptor A2b [6] = target: T3, Adenosine receptor A2b (Homo sapiens, UniProt P29275); assay: Activation of human adenosine A2B receptor
# T3 sequence (P29275 whole entry): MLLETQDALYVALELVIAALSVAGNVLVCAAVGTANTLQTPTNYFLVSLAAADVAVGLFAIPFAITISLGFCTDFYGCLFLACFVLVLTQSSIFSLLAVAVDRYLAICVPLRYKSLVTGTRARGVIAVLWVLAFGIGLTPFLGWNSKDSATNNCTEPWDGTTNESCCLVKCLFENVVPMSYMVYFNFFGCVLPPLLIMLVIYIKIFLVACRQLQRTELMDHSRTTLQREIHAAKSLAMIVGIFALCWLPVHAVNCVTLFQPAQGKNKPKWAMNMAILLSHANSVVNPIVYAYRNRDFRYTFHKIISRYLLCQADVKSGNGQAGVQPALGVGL
# Adenosine receptor A3 [7] = target: T4, Adenosine receptor A3 (Mus musculus, UniProt Q61618); assay: Displacement of [125I]N6-(-amino-3-iodobenzyl)adenosine-5'-N-methyl-uronamide from mouse recombinant adenosine A3 receptor expressed in HEK293 cells; type: cell-based
# T4 sequence (Q61618 whole entry): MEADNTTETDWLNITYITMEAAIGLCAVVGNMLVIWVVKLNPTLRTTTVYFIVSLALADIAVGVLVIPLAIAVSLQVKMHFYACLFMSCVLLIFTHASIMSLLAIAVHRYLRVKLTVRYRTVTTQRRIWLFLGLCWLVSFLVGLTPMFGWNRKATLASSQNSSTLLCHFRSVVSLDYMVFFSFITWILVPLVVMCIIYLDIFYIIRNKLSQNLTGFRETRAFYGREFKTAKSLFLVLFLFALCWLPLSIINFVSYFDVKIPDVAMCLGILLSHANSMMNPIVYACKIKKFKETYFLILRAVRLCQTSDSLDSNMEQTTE
# Mus musculus = organism: Mus musculus; assay: Selectivity for mouse adenosine A3 receptor over mouse adenosine A1 receptor
# Adenosine receptor A2b [8] = target: T5, Adenosine receptor A2b (Mus musculus, UniProt Q60614); assay: Activation of mouse adenosine A2B receptor
# T5 sequence (Q60614 whole entry): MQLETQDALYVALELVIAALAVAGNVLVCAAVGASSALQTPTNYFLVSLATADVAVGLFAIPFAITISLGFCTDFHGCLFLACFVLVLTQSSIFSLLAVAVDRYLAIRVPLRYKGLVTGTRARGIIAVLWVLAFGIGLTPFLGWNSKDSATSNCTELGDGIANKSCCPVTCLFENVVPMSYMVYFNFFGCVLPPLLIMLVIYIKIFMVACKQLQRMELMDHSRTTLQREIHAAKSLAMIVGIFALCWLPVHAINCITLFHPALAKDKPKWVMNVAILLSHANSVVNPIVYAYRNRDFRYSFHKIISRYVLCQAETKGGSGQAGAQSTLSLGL
# Adenosine receptor A1 [9] = target: T6, Adenosine receptor A1 (Homo sapiens, UniProt P30542); assay: Displacement of radioligand from human adenosine A1 receptor expressed in CHO cells; type: cell-based
# T6 sequence (P30542 whole entry): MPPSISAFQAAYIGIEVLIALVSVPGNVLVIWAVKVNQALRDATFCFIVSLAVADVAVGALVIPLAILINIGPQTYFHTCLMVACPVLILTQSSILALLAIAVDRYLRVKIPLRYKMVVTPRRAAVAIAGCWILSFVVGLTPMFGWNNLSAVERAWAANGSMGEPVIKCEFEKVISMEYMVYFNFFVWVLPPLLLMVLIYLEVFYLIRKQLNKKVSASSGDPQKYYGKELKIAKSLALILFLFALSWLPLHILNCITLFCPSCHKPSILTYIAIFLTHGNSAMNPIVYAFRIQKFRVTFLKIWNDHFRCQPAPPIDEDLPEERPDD
# Adenosine receptor A3 [10] = target: T7, Adenosine receptor A3 (Homo sapiens, UniProt P0DMS8); assay: Displacement of radioligand from human adenosine A3 receptor expressed in CHO cells; type: cell-based
# T7 sequence (P0DMS8 whole entry): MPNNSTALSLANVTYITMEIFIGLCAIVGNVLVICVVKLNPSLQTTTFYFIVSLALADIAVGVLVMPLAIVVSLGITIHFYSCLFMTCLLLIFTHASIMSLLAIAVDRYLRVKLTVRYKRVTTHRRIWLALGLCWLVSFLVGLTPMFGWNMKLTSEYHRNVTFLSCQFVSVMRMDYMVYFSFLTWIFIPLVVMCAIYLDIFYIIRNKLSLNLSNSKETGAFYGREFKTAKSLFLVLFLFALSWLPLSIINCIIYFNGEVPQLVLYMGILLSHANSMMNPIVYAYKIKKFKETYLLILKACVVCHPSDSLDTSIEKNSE
# Adenosine receptor A2a [11] = target: T1, Adenosine receptor A2a; assay: Displacement of radioligand from human adenosine A2A receptor expressed in HEK293 cells; type: cell-based
# Adenosine receptor A2a [12] = target: Adenosine receptor A2a (Rattus norvegicus, UniProt P30543); assay: Displacement of radioligand from rat adenosine A2A receptor
# Adenosine receptor A2a (Rattus norvegicus, UniProt P30543), sequence (P30543 whole entry): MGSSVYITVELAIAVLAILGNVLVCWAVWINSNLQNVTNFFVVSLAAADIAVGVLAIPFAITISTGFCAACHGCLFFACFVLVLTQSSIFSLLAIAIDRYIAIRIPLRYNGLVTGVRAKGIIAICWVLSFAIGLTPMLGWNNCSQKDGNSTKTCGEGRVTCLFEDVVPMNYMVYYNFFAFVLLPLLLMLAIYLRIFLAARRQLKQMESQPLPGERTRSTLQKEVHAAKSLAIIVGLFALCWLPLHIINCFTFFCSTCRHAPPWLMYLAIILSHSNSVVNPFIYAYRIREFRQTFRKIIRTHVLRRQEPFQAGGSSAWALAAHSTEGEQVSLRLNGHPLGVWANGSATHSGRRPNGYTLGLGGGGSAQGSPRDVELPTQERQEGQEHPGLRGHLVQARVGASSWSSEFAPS
# T1 sequence (P29274 whole entry): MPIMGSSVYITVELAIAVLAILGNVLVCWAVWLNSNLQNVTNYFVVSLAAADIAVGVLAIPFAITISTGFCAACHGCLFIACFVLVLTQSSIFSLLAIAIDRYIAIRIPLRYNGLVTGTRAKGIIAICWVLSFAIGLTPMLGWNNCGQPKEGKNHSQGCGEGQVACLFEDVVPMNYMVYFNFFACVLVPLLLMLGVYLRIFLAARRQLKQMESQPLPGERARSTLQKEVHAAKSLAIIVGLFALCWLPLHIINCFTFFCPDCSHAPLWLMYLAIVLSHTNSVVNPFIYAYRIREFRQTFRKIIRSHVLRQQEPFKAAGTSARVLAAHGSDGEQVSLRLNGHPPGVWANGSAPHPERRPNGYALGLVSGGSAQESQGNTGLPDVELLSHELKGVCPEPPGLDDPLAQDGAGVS
SMILES,inhibition (Adenosine receptor A2a [1]),inhibition [2],Ki (Adenosine receptor A1 [3]),Ki (Adenosine receptor A2a [4]),Ki (Adenosine receptor A3 [7]),Ratio Ki [5],Ratio Ki (Mus musculus),also measured
CNC(=O)[C@@]12C[C@@H]1[C@@H](n1cnc3c(NCc4cccc(C#CCCCC(=O)O)c4)nc(Cl)nc31)[C@H](O)[C@@H]2O,14%,5%,,,,,,
CNC(=O)[C@@]12C[C@@H]1[C@@H](n1cnc3c(NOC)nc(Cl)nc31)[C@H](O)[C@@H]2O,2%,2%,1160 nM,,877 nM,1.8,1.3,Ki (Adenosine receptor A1 [9]): 265 nM; Ki (Adenosine receptor A3 [10]): 149 nM
CNC(=O)[C@@]12C[C@@H]1[C@@H](n1cnc3c(NCc4cccc(Cl)c4)nc(C#C[Si](C)(C)C)nc31)[C@H](O)[C@@H]2O,52%,20%,159 nM,,4.46 nM,160,35.6,Ki (Adenosine receptor A1 [9]): 160 nM; Ki (Adenosine receptor A3 [10]): 0.98 nM
CNC(=O)[C@@]12C[C@@H]1[C@@H](n1cnc3c(NCc4cccc(Cl)c4)nc(C#CCCCC(=O)OC)nc31)[C@H](O)[C@@H]2O,49%,50%,1340 nM,,4.65 nM,,,Ki (Adenosine receptor A1 [9]): 482 nM
"CNC(=O)C12C[C@@H]1[C@@H](n1cnc3c(NCC(c4ccccc4)c4ccccc4)nc(Cl)nc31)[C@H](O)[C@@H]2O (single isomer, unassigned)",,,6.83 nM,1810 nM,1.67 nM,1900,4.1,EC50 (Adenosine receptor A2b [6]): ≥ 10000 nM
CNC(=O)[C@@]12C[C@@H]1[C@@H](n1cnc3c(NCc4cccc(I)c4)nc(Cl)nc31)[C@H](O)[C@@H]2O,,,7.32 nM,5350 nM,0.8 nM,,,EC50 (Adenosine receptor A2b [6]): ≥ 10000 nM
CNC(=O)[C@@]12C[C@@H]1[C@@H](n1cnc3c(NCc4cccc(Cl)c4)nc(C#CCCCC(=O)NCCN)nc31)[C@H](O)[C@@H]2O,81%,31%,546 nM,,8.6 nM,209,64,Ki (Adenosine receptor A1 [9]): 454 nM; Ki (Adenosine receptor A3 [10]): 2.17 nM
CNC(=O)[C@@]12C[C@@H]1[C@@H](n1cnc3c(NC)nc(Cl)nc31)[C@H](O)[C@@H]2O,6%,,55.3 nM,,49 nM,,,Ki (Adenosine receptor A2a [12]): > 10000 nM
"CNC(=O)C12C[C@@H]1[C@@H](n1cnc3c(NCc4cccc(C#CCO)c4)nc(Cl)nc31)[C@H](O)[C@@H]2O (single isomer, unassigned)",56%,11%,,,,,,
"CNC(=O)C12C[C@@H]1[C@@H](n1cnc3c(NCc4cccc(Cl)c4)nc(SC)nc31)[C@H](O)[C@@H]2O (single isomer, unassigned)",,32%,98.9 nM,,1.19 nM,410,83,Ki (Adenosine receptor A2a [11]): 10000 nM
"CNC(=O)C12C[C@@H]1[C@@H](n1cnc3c(NCc4cccc(Cl)c4)nc(I)nc31)[C@H](O)[C@@H]2O (single isomer, unassigned)",,40%,,,,,,Ki (Adenosine receptor A2a [11]): > 10000 nM

# More lines, main results first:
inhibition (Adenosine receptor A2a [1]),inhibition [2],Ki (Adenosine receptor A1 [3]),Ki (Adenosine receptor A2a [4]),Ki (Adenosine receptor A3 [7]),SMILES,Ratio Ki [5],Ratio Ki (Mus musculus),also measured
35%,14%,,,,CNC(=O)[C@@]12C[C@@H]1[C@@H](n1cnc3c(NCc4cc(OC)ccc4OC)nc(I)nc31)[C@H](O)[C@@H]2O,,,
,,8.79 nM,6390 nM,0.9 nM,"CNC(=O)C12C[C@@H]1[C@@H](n1cnc3c(NCc4cccc(Br)c4)nc(Cl)nc31)[C@H](O)[C@@H]2O (single isomer, unassigned)",710,9.8,EC50 (Adenosine receptor A2b [6]): ≥ 10000 nM
,,5.9 nM,1000 nM,0.087 nM,CNC(=O)[C@H]1O[C@@H](n2cnc3c(NCc4cccc(I)c4)ncnc32)[C@H](O)[C@@H]1O [IB-MECA],,,EC50 (Adenosine receptor A2b [8]): ≥ 10000 nM
80%,42%,,,,CCCC#Cc1nc(NCc2cccc(Cl)c2)c2ncn([C@H]3[C@H](O)[C@H](O)[C@]4(C(=O)NC)C[C@H]34)c2n1,,,
48%,41%,,,,C#Cc1nc(NCc2cccc(Cl)c2)c2ncn([C@H]3[C@H](O)[C@H](O)[C@]4(C(=O)NC)C[C@H]34)c2n1,,,
,,,38200 nM,,"CNC(=O)C12C[C@@H]1[C@@H](n1cnc3c(NC4CC4c4ccccc4)nc(Cl)nc31)[C@H](O)[C@@H]2O (single isomer, unassigned)",,,EC50 (Adenosine receptor A2b [6]): ≥ 10000 nM
80%,68%,,,,CNC(=O)[C@@]12C[C@@H]1[C@@H](n1cnc3c(NCc4cccc(C#CCCCC(=O)NCCNC(C)=O)c4)nc(Cl)nc31)[C@H](O)[C@@H]2O,,,
,,35 nM,10000 nM,,CNC(=O)[C@H]1O[C@@H](n2cnc3c(NCc4cccc(I)c4)nc(Cl)nc32)[C@H](O)[C@@H]1O [NAMODENOSON],,,EC50 (Adenosine receptor A2b [8]): ≥ 10000 nM
,,29 nM,44700 nM,1.72 nM,"CNC(=O)C12C[C@@H]1[C@@H](n1cnc3c(NCc4cc(OC)ccc4OC)nc(Cl)nc31)[C@H](O)[C@@H]2O (single isomer, unassigned)",1100,17,Ki (Adenosine receptor A2a [11]): 10000 nM; EC50 (Adenosine receptor A2b [6]): ≥ 10000 nM
,,15.3 nM,10400 nM,1.49 nM,CNC(=O)[C@@]12C[C@@H]1[C@@H](n1cnc3c(NCc4cccc(Cl)c4)nc(Cl)nc31)[C@H](O)[C@@H]2O,,,EC50 (Adenosine receptor A2b [6]): ≥ 10000 nM
43%,8%,,,,CNC(=O)[C@@]12C[C@@H]1[C@@H](n1cnc3c(NCc4cccc(Cl)c4)nc(C#CCCCC(=O)O)nc31)[C@H](O)[C@@H]2O,,,
58%,39%,151 nM,,11.9 nM,CNC(=O)[C@@]12C[C@@H]1[C@@H](n1cnc3c(NCc4cccc(C#CCCCC(=O)NCCN)c4)nc(Cl)nc31)[C@H](O)[C@@H]2O,52,13,Ki (Adenosine receptor A1 [9]): 271 nM; Ki (Adenosine receptor A3 [10]): 5.21 nM
